US20050215517A1, “Use of an anti-endotoxin drug in the prevention and treatment of disease” (priority 1999, published 2005)

What was measured:
[1] = Plasma pharmacokinetics of E5564 after single bolus intravenous injection; assay type: in vivo, dogs; details: single bolus i.v.
Method: FIG. 3 is a graph showing the plasma levels of E5564 after a single bolus injection. After bolus administration of 0.1 mg/kg E5564 (∘), 0.3 mg/kg E5564 (□), and 1 mg/kg E5564 (▪), blood was drawn and analyzed for E5564 concentration by extraction and analysis by HPLC. Each value represents the mean±S.E.M. of three animals. No drug was detectable in samples drawn prior to dosing.
This long-term presence of unmodified E5564 in blood initially led us to believe that active drug was likely present for very long periods of time after cessation of drug administration.

[2] = test system: LPS endotoxin; experiment: Pharmacodynamic analysis of E5564 in vivo: LPS challenge in dogs, plasma TNF-α by bioassay; design: species or system beagle dogs; details: for TNF-α at 1 hour / TNF-α at 2 hours: plasma; for TNF-α at 1 hour: 1 h after LPS 300 ng/kg i.v.; for TNF-α at 2 hours: 2 h after LPS 300 ng/kg i.v.
Method: FIG. 1 is a graph showing the anti-endotoxin activity of E5564 after a single bolus injection. LPS endotoxin (300 ng/kg) was injected intravenously into untreated dogs (∘) or simultaneously with 0.1 mg/kg E5564 (Δ) one hour after E5564 administration (□) or three hours after E5564 administration (●). Blood was drawn and analyzed for TNF-α concentration by bioassay, as is described in the Materials and Methods section, below. Each value represents the mean±S.E.M. of four animals.
In general, the candidate antagonist is administered to a test species of animal, and an appropriate dose of endotoxin (lipopolysaccharide (LPS)) is administered to test the ability of the candidate antagonist to block the effects of endotoxin. Some of the experiments described below use an in vivo challenge of LPS given intravenously both during and after intravenous infusion of E5564. Activity of an antagonist can also be assayed ex vivo by removing blood samples from animals treated with the candidate antagonist and testing that blood to determine if the drug is active and/or present in sufficient quantities to inhibit cellular activation by LPS. In both assays, activity of the antagonist is quantitated by analysis of the cytokines induced by LPS administration. In addition, other physiological symptoms of endotoxin poisoning can be used as readouts of activity. Studies described herein use TNF-α and/or IL-6 as readouts of cellular activation, but a variety of other cytokines and cellular mediators can also be used for this purpose.
As is shown in FIG. 1 and Table 1, delivery of 300 ng/kg of LPS into beagle dogs (“control” in FIG. 1) elicits a strong, reproducible response, as measured by levels of plasma TNF-α. […] This short activity lifetime (i.e., pharmacodynamic half-life) is an unexpected result, as the pharmacokinetic half-life of E5564 is extremely long in comparison (see below). Thus, while the unmodified (unmetabolized) drug appears to remain in circulation for a relatively long period of time, it loses activity. Because of this unexpected discovery, we have chosen to administer E5564 by infusion.
E5564 was synthesized by Eisai Research Institute of Boston, Andover, Mass., U.S.A. E5564 drug product was manufactured at the Eisai Preclinical Laboratory (Tsukuba, Japan) by dissolving 35.4 mg of drug substance in 52.1 ml 0.01 N NaOH, stirring for one hour at room temperature, and diluting into phosphate-buffered lactose. After adjusting the pH to 7.3 and diluting to a final concentration of 0.1 mg/ml E5564, the solution was filter-sterilized and lyophilized.
Escherichia coli LPS (Serotype 0111:B4; phenol extracted, Cat. # L-2630) was purchased from Sigma Chemical Co. Ltd., St. Louis, Mo., U.S.A. Lyophylized E5564 was solubilized in 5 ml of sterile water (Otsuka Pharm. Co. Ltd., Tokyo, Japan). LPS was weighed to an accuracy of 1/10 mg and solubilized in 5% glucose (Otsuka Pharm. Co. Ltd., Tokyo, Japan). The LPS solution was sonicated with a bath-type sonicator for 15 minutes after which aliquots were immediately prepared and stored at −20° C. Prior to use, the solution was sonicated for one or two minutes, and then dilutions were prepared in 5% glucose.
Nine month-old beagles were obtained from Kawashima-shoji Co. Ltd., Gifu, Japan) and housed in stainless steel wire cages (W 800 mm×D 680 mm×H 680 mm; one dog per cage) in a room with a constant temperature of 20-24° C., humidity of 45-65%, and 12 hour light-dark cycle. The animals were provided with pellet food (DS, Oriental Yeast Co., Tokyo, Japan) and water ad libitum. LPS endotoxin (300 ng/0.1 ml/kg) was injected into the vein of the right foreleg at a rate of 1-2 ml/minute, and E5564 was injected into the vein of the left foreleg at a rate of 10-20 ml/minute.
Immediately before or 1, 2, or 4 hours after intravenous injection of LPS and E5564, 1.5 ml of blood was drawn from the left cephalic vein. […]

[3] = 0.1 mg/kg E5564 bolus one hour before LPS
[4] = 0.1 mg/kg E5564 bolus three hours before LPS

## CCCCCC/C=C\CCCCCCCCCC(=O)N[C@H]1[C@H](OC[C@H]2O[C@H](OP(=O)(O)O)[C@H](NC(=O)CC(=O)CCCCCCCCCCC)[C@@H](OCCCCCCCCCC)[C@@H]2O)O[C@H](COC)[C@@H](OP(=O)(O)O)[C@@H]1OCC[C@@H](CCCCCCC)OC [E5564, α-D-Glucopyranose, 3-O-decyl-2-deoxy-6-O-[2-deoxy-3-O-[(3R)-3-methoxydecyl)-6-O-methyl-2-[[(11Z)-1-oxo-11-octadecenyl)amino]-4-O-phosphono-β-D-glucopyranosyl]-2-[(1,3-dioxotetradecyl)amino]-,1-(dihydrogen phosphate)]
[1]; 0.1 mg/kg dose
  AUC: 71.8255 ± 1.981 µg·h/mL
  T½: 41.7 ± 2.7 h
[1]; 0.3 mg/kg
  AUC: 270.8972 µg·h/mL
  T½: 50.4 ± 2.2 h
[1]; 1 mg/kg
  AUC: 743.5446 µg·h/mL
  T½: 46.4 ± 2.7 h
[2]; 0.1 mg/kg E5564 given at the same time as LPS 300 ng/kg
  Blocking of LPS challenge (plasma TNF-α): completely effective
[2]; E5564 one hour before LPS
  Response to LPS (% of control): 0 % of control
  Sum of TNF-α (AUC): 0 units/ml
[2]; E5564 simultaneously with LPS
  Inhibition of LPS response: 100
  Response to LPS (% of control): 0 % of control
[2]; E5564 three hours before LPS
  Response to LPS (% of control): 52 % of control
[2]; LPS administered three hours after 0.1 mg/kg E5564
  Activity of the endotoxin antagonist remaining: about 48 % of its original activity
[2]; [3]
  TNF-α at 1 hour: 0 units/ml
  TNF-α at 2 hours: 0 units/ml
[2]; 0.1 mg/kg E5564 bolus simultaneously with LPS, four dogs
  TNF-α at 1 hour: 0 units/ml
[2]; [4]
  TNF-α at 1 hour: 1353 ± 340 units/ml
  TNF-α at 2 hours: 190 ± 113 units/ml
[2]; 0.1 mg/kg E5564 bolus simultaneously with LPS
  TNF-α at 2 hours: 0 units/ml
